US20100267561A1, “HERBICIDAL PYRIDAZINONE DERIVATIVES” (priority 2007, published 2010)

What was measured:
Experiment in all cases: Test B pre-/postemergence plant response
Format in all cases: in vivo
[1] = test system: downy bromegrass (Bromus tectorum); details: for Bromegrass, Downy plant response rating: 8 g ai/ha
Procedure, shortened: (§1)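 Seeds were sown and sprayed preemergence, while plants at 2 to 18 cm (1- to 4-leaf stage) got postemergence sprays. Compounds were formulated in a non-phytotoxic solvent mixture with surfactant. After 13 to 15 days in a greenhouse, injury was rated visually against untreated controls, 0 (no effect) to 100 (complete control).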

wild oat (Avena fatua) = details: for Oat, Wild plant response rating: 8 g ai/ha
Procedure, shortened: as §1

corn (Zea mays) = details: for Corn plant response rating: 8 g ai/ha
Procedure, shortened: as §1

[2] = test system: woolly cupgrass (Eriochloa villosa); details: for Cupgrass, Woolly plant response rating: 8 g ai/ha
Procedure, shortened: as §1

[3] = test system: common ragweed (Ambrosia elation); details: for Ragweed plant response rating: 8 g ai/ha
Procedure, shortened: as §1

[4] = test system: morningglory (Ipomoea coccinea); details: for Morningglory plant response rating: 8 g ai/ha
Procedure, shortened: as §1

[5] = test system: goosegrass (Eleusine indica); details: for Goosegrass plant response rating: 8 g ai/ha
Procedure, shortened: as §1

[6] = test system: lambsquarters (Chenopodium album); details: for Lambsquarters plant response rating: 8 g ai/ha
Procedure, shortened: as §1

[7] = test system: catchweed bedstraw (Galium aparine); details: Preemergence
Procedure, shortened: as §1

[8] = test system: pigweed (Amaranthus retroflexus); details: for Pigweed plant response rating: 8 g ai/ha
Procedure, shortened: as §1

[9] = test system: green foxtail (Setaria viridis); details: for Foxtail, Green plant response rating: 8 g ai/ha
Procedure, shortened: as §1

[10] = test system: giant foxtail (Setaria faberii); details: for Foxtail, Giant plant response rating: 8 g ai/ha
Procedure, shortened: as §1

[11] = test system: blackgrass (Alopecurus myosuroides); details: for Blackgrass plant response rating: 8 g ai/ha
Procedure, shortened: as §1

[12] = test system: surinam grass (Brachiaria decumbens); details: for Surinam Grass plant response rating: 8 g ai/ha
Procedure, shortened: as §1

[13] = Postemergence, 16 g ai/ha, scale 0 to 100
[14] = Postemergence, 31 g ai/ha, scale 0 to 100, 0 no effect, 100 complete control
[15] = Postemergence, 62 g ai/ha, scale 0 to 100, 0 no effect, 100 complete control
[16] = Preemergence, 16 g ai/ha, scale 0 to 100 (0 no effect, 100 complete control)
[17] = Preemergence, 31 g ai/ha, 0 to 100 scale, 0 no effect, 100 complete control
[18] = Preemergence, 62 g ai/ha, scale 0 to 100

Cc1cc(-c2ccc(Cl)cc2)nn1-c1c(OC(=O)c2ccccc2Cl)cnn(C)c1=O [Compound 38]
Bromegrass, Downy plant response rating ([1]; postemergence, 0-100 scale): 30 | Plant response rating, Bromegrass, Downy [1, 13]: 45 | Plant response rating, Bromegrass, Downy [1, 14]: 50 | Plant response rating, Bromegrass, Downy [1, 15]: 60 | Plant response rating, Bromegrass, Downy [1, 16]: 55 | Plant response rating, Bromegrass, Downy [1, 17]: 60 | Plant response rating, Bromegrass, Downy [1, 18]: 90 | Bromegrass, Downy plant response rating ([1]; Preemergence, scale 0 to 100): 55 | Oat, Wild plant response rating (wild oat (Avena fatua); postemergence, 0-100 scale): 80 | Plant response rating, Oat, Wild (wild oat (Avena fatua); [13]): 90 | Plant response rating, Oat, Wild (wild oat (Avena fatua); [14]): 95 | Plant response rating, Oat, Wild (wild oat (Avena fatua); [15]): 100 | Plant response rating, Oat, Wild (wild oat (Avena fatua); [16]): 60 | Plant response rating, Oat, Wild (wild oat (Avena fatua); [17]): 85 | Plant response rating, Oat, Wild (wild oat (Avena fatua); [18]): 90 | Oat, Wild plant response rating (wild oat (Avena fatua); Preemergence, scale 0 to 100): 0 | Corn plant response rating (corn (Zea mays); postemergence, 0-100 scale): 90 | Plant response rating, Corn (corn (Zea mays); [13]): 95 | Plant response rating, Corn (corn (Zea mays); [14]): 100 | Plant response rating, Corn (corn (Zea mays); [15]): 100 | Plant response rating, Corn (corn (Zea mays); [16]): 50 | Plant response rating, Corn (corn (Zea mays); [17]): 75 | Plant response rating, Corn (corn (Zea mays); [18]): 95 | Corn plant response rating (corn (Zea mays); Preemergence, scale 0 to 100): 45 | Cupgrass, Woolly plant response rating ([2]; postemergence, 0-100 scale): 70 | Plant response rating, Cupgrass, Woolly [2, 13]: 98 | Plant response rating, Cupgrass, Woolly [2, 14]: 100 | Plant response rating, Cupgrass, Woolly [2, 15]: 100 | Plant response rating, Cupgrass, Woolly [2, 16]: 50 | Plant response rating, Cupgrass, Woolly [2, 17]: 90 | Plant response rating, Cupgrass, Woolly [2, 18]: 100 | Cupgrass, Woolly plant response rating ([2]; Preemergence, scale 0 to 100): 0 | Ragweed plant response rating ([3]; postemergence, 0-100 scale): 0 | Plant response rating, Ragweed [3, 13]: 0 | Plant response rating, Ragweed [3, 14]: 0 | Plant response rating, Ragweed [3, 15]: 0 | Plant response rating, Ragweed [3, 16]: 0 | Plant response rating, Ragweed [3, 17]: 0 | Plant response rating, Ragweed [3, 18]: 0 | Ragweed plant response rating ([3]; Preemergence, scale 0 to 100): 0 | Morningglory plant response rating ([4]; postemergence, 0-100 scale): 0 | Plant response rating, Morningglory [4, 13]: 0 | Plant response rating, Morningglory [4, 14]: 0 | Plant response rating, Morningglory [4, 15]: 0 | Plant response rating, Morningglory [4, 16]: 0 | Plant response rating, Morningglory [4, 17]: 0 | Plant response rating, Morningglory [4, 18]: 0 | Morningglory plant response rating ([4]; Preemergence, scale 0 to 100): 0 | Goosegrass plant response rating ([5]; postemergence, 0-100 scale): 100 | Plant response rating, Goosegrass [5, 13]: 100 | Plant response rating, Goosegrass [5, 14]: 100 | Plant response rating, Goosegrass [5, 15]: 100 | Plant response rating, Goosegrass [5, 16]: 85 | Plant response rating, Goosegrass [5, 17]: 95 | Plant response rating, Goosegrass [5, 18]: 95 | Goosegrass plant response rating ([5]; Preemergence, scale 0 to 100): 45 | Lambsquarters plant response rating ([6]; postemergence, 0-100 scale): 0 | Plant response rating, Lambsquarters [6, 13]: 0 | Plant response rating, Lambsquarters [6, 14]: 0 | Plant response rating, Lambsquarters [6, 15]: 0 | Plant response rating, Lambsquarters [6, 16]: 0 | Plant response rating, Lambsquarters [6, 17]: 0 | Plant response rating, Lambsquarters [6, 18]: 0 | Lambsquarters plant response rating ([6]; Preemergence, scale 0 to 100): 0 | Plant response rating, Galium ([7]; 16 g ai/ha, scale 0 to 100 (0 no effect, 100 complete control)): 0 | Plant response rating, Galium ([7]; 31 g ai/ha, 0 to 100 scale, 0 no effect, 100 complete control): 0 | Plant response rating, Galium ([7]; 62 g ai/ha, scale 0 to 100): 0 | Galium plant response rating ([7]; 8 g ai/ha, scale 0 to 100): 0 | Pigweed plant response rating ([8]; postemergence, 0-100 scale): 0 | Plant response rating, Pigweed [8, 13]: 0 | Plant response rating, Pigweed [8, 14]: 0 | Plant response rating, Pigweed [8, 15]: 0 | Plant response rating, Pigweed [8, 16]: 0 | Plant response rating, Pigweed [8, 17]: 0 | Plant response rating, Pigweed [8, 18]: 0 | Pigweed plant response rating ([8]; Preemergence, scale 0 to 100): 0 | Foxtail, Green plant response rating ([9]; postemergence, 0-100 scale): 30 | Plant response rating, Foxtail, Green [9, 13]: 75 | Plant response rating, Foxtail, Green [9, 14]: 80 | Plant response rating, Foxtail, Green [9, 15]: 98 | Plant response rating, Foxtail, Green [9, 16]: 100 | Plant response rating, Foxtail, Green [9, 17]: 100 | Plant response rating, Foxtail, Green [9, 18]: 100 | Foxtail, Green plant response rating ([9]; Preemergence, scale 0 to 100): 30 | Foxtail, Giant plant response rating ([10]; postemergence, 0-100 scale): 0 | Plant response rating, Foxtail, Giant [10, 13]: 20 | Plant response rating, Foxtail, Giant [10, 14]: 50 | Plant response rating, Foxtail, Giant [10, 15]: 100 | Plant response rating, Foxtail, Giant [10, 16]: 98 | Plant response rating, Foxtail, Giant [10, 17]: 100 | Plant response rating, Foxtail, Giant [10, 18]: 100 | Foxtail, Giant plant response rating ([10]; Preemergence, scale 0 to 100): 45 | Blackgrass plant response rating ([11]; postemergence, 0-100 scale): 0 | Plant response rating, Blackgrass [11, 13]: 40 | Plant response rating, Blackgrass [11, 14]: 80 | Plant response rating, Blackgrass [11, 15]: 98 | Plant response rating, Blackgrass [11, 17]: 90 | Plant response rating, Blackgrass [11, 18]: 100 | Blackgrass plant response rating ([11]; Preemergence, scale 0 to 100): 90 | Surinam Grass plant response rating ([12]; postemergence, 0-100 scale): 90 | Plant response rating, Surinam Grass [12, 13]: 90 | Plant response rating, Surinam Grass [12, 15]: 100 | Plant response rating, Surinam Grass [12, 16]: 90 | Plant response rating, Surinam Grass [12, 17]: 100 | Plant response rating, Surinam Grass [12, 18]: 100 | Surinam Grass plant response rating ([12]; Preemergence, scale 0 to 100): 90
